“And” between values parts separate entries of the source, which are not always exact repeats. Equal values may be shown once. Inconclusive results and toxic doses are left out. Cut-off read from the data, not from the text of the source: active = T/C of 150% or more; inactive = T/C below 125%.
Tested on: L1210 leukemia ip in BDF1 mice, survival T/C
Assay: NCI In Vivo Anticancer Drug Screen. Data for tumor model L1210 Leukemia (intraperitoneal) in B6D2F1 (BDF1) mice
Conditions: endpoint: mean survival time, higher = longer survival
How it was run: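 Tumor cells were implanted, animals were treated, and survival was followed. The result divides the treated measurement by the vehicle-control measurement.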

[1] = dose: 100.0 mg/kg/injection, schedule: Q01DX009 (ip), vehicle: Klucel (hydroxypropylcellulose) (HPC)
[2] = dose: 200.0 mg/kg/injection, schedule: Q01DX009 (ip), vehicle: Klucel (hydroxypropylcellulose) (HPC)
[3] = dose: 100.0 mg/kg/injection, schedule: Q04DX003 (ip), vehicle: Klucel (hydroxypropylcellulose) (HPC)
[4] = dose: 200.0 mg/kg/injection, schedule: Q04DX003 (ip), vehicle: Klucel (hydroxypropylcellulose) (HPC)
[5] = dose: 400.0 mg/kg/injection, schedule: Q04DX003 (ip), vehicle: Klucel (hydroxypropylcellulose) (HPC)
[6] = dose: 100.0 mg/kg/injection, schedule: Q01DX009 (ip), vehicle: saline with Tween-80
[7] = dose: 100.0 mg/kg/injection, schedule: Q04DX002 (ip), vehicle: saline with Tween-80
[8] = dose: 100.0 mg/kg/injection, schedule: Q04DX003 (ip), vehicle: saline with Tween-80
[9] = dose: 200.0 mg/kg/injection, schedule: Q01DX009 (ip), vehicle: saline with Tween-80
[10] = dose: 200.0 mg/kg/injection, schedule: Q04DX002 (ip), vehicle: saline with Tween-80
[11] = dose: 200.0 mg/kg/injection, schedule: Q04DX003 (ip), vehicle: saline with Tween-80
[12] = dose: 400.0 mg/kg/injection, schedule: Q01DX009 (ip), vehicle: saline with Tween-80
[13] = dose: 400.0 mg/kg/injection, schedule: Q04DX003 (ip), vehicle: saline with Tween-80
[14] = dose: 100.0 mg/kg/injection, schedule: Q01DX001 (ip), vehicle: saline
[15] = dose: 200.0 mg/kg/injection, schedule: Q01DX001 (ip), vehicle: saline
[16] = dose: 400.0 mg/kg/injection, schedule: Q01DX001 (ip), vehicle: saline
[17] = dose: 100.0 mg/kg/injection, schedule: Q01DX001 (ip), vehicle: carboxymethylcellulose (CMC)
[18] = dose: 200.0 mg/kg/injection, schedule: Q01DX001 (ip), vehicle: carboxymethylcellulose (CMC)
[19] = dose: 400.0 mg/kg/injection, schedule: Q01DX001 (ip), vehicle: carboxymethylcellulose (CMC)
[20] = dose: 50.0 mg/kg/injection, schedule: Q01DX001 (ip), vehicle: saline

Measured: T/C

CS(=O)(=O)Nc1nc2ccccc2s1
inactive: dose: 100.0 mg/kg/injection, schedule: Q04DX003 (ip), vehicle: carboxymethylcellulose (CMC) 98 % of control | dose: 200.0 mg/kg/injection, schedule: Q04DX003 (ip), vehicle: carboxymethylcellulose (CMC) 98 % of control | dose: 400.0 mg/kg/injection, schedule: Q04DX003 (ip), vehicle: carboxymethylcellulose (CMC) 97 % of control

CCN(CC)S(=O)(=O)c1ccc(OC)c(N)c1
inactive: [1] 98 % of control | dose: 100.0 mg/kg/injection, schedule: Q04DX003 (ip), vehicle: other 96 % of control | [2] 96 % of control | dose: 200.0 mg/kg/injection, schedule: Q04DX003 (ip), vehicle: other 104 % of control | dose: 400.0 mg/kg/injection, schedule: Q01DX009 (ip), vehicle: Klucel (hydroxypropylcellulose) (HPC) 104 % of control | dose: 400.0 mg/kg/injection, schedule: Q04DX003 (ip), vehicle: other 100 % of control

COC1=C(c2ccccc2)C(=O)CCc2ccccc21
inactive: [3] 97 % of control | [4] 106 % of control | [5] 97 % of control

CCCCC(=O)c1ccc(Cl)cc1
inactive: [3] 103 % of control | [4] 111 % of control | [5] 104 % of control

COc1ccc(NC(=O)Nc2cccc(Cl)c2C)c(OC)c1
inactive: dose: 100.0 mg/kg/injection, schedule: Q01DX001 (ip), vehicle: saline with Tween-80 98 % of control | [6] 93 % of control and 89 % of control | [7] 93 % of control and 92 % of control | [8] 86 % of control | dose: 200.0 mg/kg/injection, schedule: Q01DX001 (ip), vehicle: saline with Tween-80 102 % of control | [9] 94 % of control and 86 % of control | [10] 104 % of control and 90 % of control | [11] 86 % of control | dose: 400.0 mg/kg/injection, schedule: Q01DX001 (ip), vehicle: saline with Tween-80 100 % of control | [12] 97 % of control and 110 % of control | dose: 400.0 mg/kg/injection, schedule: Q04DX002 (ip), vehicle: saline with Tween-80 90 % of control | [13] 91 % of control

COP(=S)(OC)N(C)C
inactive: dose: 75.0 mg/kg/injection, schedule: Q01DX001 (ip), vehicle: saline 101 % of control | dose: 150.0 mg/kg/injection, schedule: Q01DX001 (ip), vehicle: saline 96 % of control

CCCCCCCCCCCCCCCCCCNC(=O)CCl
inactive: [1] 94 % of control | [3] 92 % of control | [2] 89 % of control | [4] 90 % of control | [5] 97 % of control

O=C1CN=C(c2ccccn2)c2cc(Cl)ccc2N1CCO
inactive: [6] 106 % of control | [8] 96 % of control | [9] 101 % of control | [11] 112 % of control | [12] 98 % of control | [13] 91 % of control

Cc1ccc(Nc2nc(N)nc(N)c2N)cc1C
inactive: dose: 25.0 mg/kg/injection, schedule: Q01DX Z (ip), vehicle: saline 93 % of control

O=C(O)/C(=C\c1ccc(Cl)cc1)c1ccc(Cl)cc1
inactive: [1] 104 % of control | [3] 95 % of control | [2] 89 % of control | [4] 91 % of control | [5] 95 % of control

COc1ccc(CCN(C)C(c2ccccc2)c2ccccc2)cc1OC
inactive: [14] 100 % of control | [15] 96 % of control | [16] 104 % of control

O=C(O)c1cc(-c2ccc(Cl)cc2)nc2c(-c3ccccc3)cccc12
inactive: [8] 95 % of control | [11] 95 % of control | [13] 90 % of control

Cc1cc(=O)[nH]c(N=Nc2c(O)[nH]c3ccccc23)n1
inactive: [17] 98 % of control | [18] 93 % of control | [19] 88 % of control

CN(CCNC(=O)c1ccccc1C(=O)O)c1ccccc1
inactive: [7] 100 % of control | [10] 95 % of control

CC(=O)O[C@H]1C[C@@]2(C)[C@@H](C[C@@H](O)[C@H]3[C@@]4(C)CC[C@@H](O)[C@@H](C)[C@@H]4CC[C@@]32C)/C1=C(\CCC=C(C)C)C(=O)O
inactive: dose: 50.0 mg/kg/injection, schedule: Q01DX009 (sc), vehicle: steriod suspending solution 95 % of control | [17] 97 % of control | dose: 100.0 mg/kg/injection, schedule: Q01DX009 (sc), vehicle: steriod suspending solution 95 % of control | dose: 100.0 mg/kg/injection, schedule: Q04DX003 (ip), vehicle: steriod suspending solution 102 % of control | [18] 94 % of control | dose: 200.0 mg/kg/injection, schedule: Q01DX009 (sc), vehicle: steriod suspending solution 103 % of control | dose: 200.0 mg/kg/injection, schedule: Q04DX003 (ip), vehicle: steriod suspending solution 102 % of control | [19] 90 % of control | dose: 400.0 mg/kg/injection, schedule: Q04DX003 (ip), vehicle: steriod suspending solution 101 % of control

COC(=O)C(NC(C)=O)C(C)C (stereo unspecified)
inactive: dose: 6.25 mg/kg/injection, schedule: Q03HX024 (ip), vehicle: saline 97 % of control | dose: 12.5 mg/kg/injection, schedule: Q03HX024 (ip), vehicle: saline 96 % of control | dose: 25.0 mg/kg/injection, schedule: Q01DX001 (ip), vehicle: saline 100 % of control | dose: 25.0 mg/kg/injection, schedule: Q03HX024 (ip), vehicle: saline 89 % of control | [20] 96 % of control | dose: 50.0 mg/kg/injection, schedule: Q03HX024 (ip), vehicle: saline 89 % of control | [14] 101 % of control | dose: 100.0 mg/kg/injection, schedule: Q03HX024 (ip), vehicle: saline 105 % of control | [15] 99 % of control | [16] 106 % of control

Cc1ccc(O)c(N=O)c1.[Co]
inactive: [20] 97 % of control | [14] 109 % of control | [15] 115 % of control

C/C(Cc1ccccc1)=N\O
inactive: dose: 59.0 mg/kg/injection, schedule: Q01DX009 (ip), vehicle: saline with Tween-80 107 % of control | [6] 104 % of control | dose: 118.0 mg/kg/injection, schedule: Q01DX009 (ip), vehicle: saline with Tween-80 109 % of control | dose: 236.0 mg/kg/injection, schedule: Q01DX009 (ip), vehicle: saline with Tween-80 103 % of control | [12] 97 % of control

FCCBr
inactive: dose: 3.12 mg/kg/injection, schedule: Q04DX003 (ip), vehicle: saline 104 % of control | dose: 6.25 mg/kg/injection, schedule: Q04DX003 (ip), vehicle: saline 104 % of control | dose: 12.5 mg/kg/injection, schedule: Q01DX009 (ip), vehicle: water 100 % of control | dose: 12.5 mg/kg/injection, schedule: Q04DX003 (ip), vehicle: saline 107 % of control | dose: 25.0 mg/kg/injection, schedule: Q04DX003 (ip), vehicle: saline 112 % of control | dose: 25.0 mg/kg/injection, schedule: Q04DX003 (ip), vehicle: water 97 % of control | dose: 100.0 mg/kg/injection, schedule: Q04DX003 (ip), vehicle: water 112 % of control

— PubChem BioAssay AID248 (DTP/NCI, 2004)
